# According to patent US20240307373A1, “METHODS OF USE AND COMPOSITIONS OF BISBENZYLISOQUINOLINES FOR THE TREATMENT OF MALIGNANCIES” (priority 2023, published 2024):
# pIC50: −log10 of the molar value. Several values for one entry are separate records, joined by “and”; a condition that tells them apart may be missing. Equal entries are not always repeated.
# Experiments:
# [1] = tested on: human breast, colon carcinoma, and hepatoma cell lines; settings: read-out: IC50 range; cited from earlier work
# [2] = tested on: human CML bone marrow-derived cells; experiment: Replating assay (secondary clonal growth of plucked CFU-GM colonies); type: cell-based
# Experimental: Following enumeration of the erythroid and myeloid progenitors, individual CFU-GM colonies were plucked from the matrix and diluted in 20 μL of IMDM+10% FBS. The colony was dispersed in this medium by gentle pipetting. This cellular mixture was then added to a well of a 96 well plate containing 180 μL of the ColonyGel medium described above. […] Both the number of wells which supported clonal growth as well as colony number per well were recorded.
# bcr-abl transcripts = experiment: qPCR assay for bcr-abl and abl transcripts in primary and secondary colonies; type: cell-based, human; settings: 10 μM, number of colonies
# Experimental: After 14-16 days in culture, individual colonies were plucked from the solvent control and tetrandrine at 10 μM test condition into 75 μL of buffer RLT (Qiagen). Secondary replated colonies were collected and washed with 2 mL of 1× PBS, frozen at −80° C. and then lysed with 75 μL of buffer RLT (Qiagen). RNA was isolated using the Rneasy Micro kit according to the manufacture's instructions. Because the cell numbers in each colony were low, 20 ng of carrier RNA was included in each reaction to promote a better RNA yield. After elution, the entire isolation was subjected to a cDNA conversion using the high-capacity cDNA conversion kit (Life Technologies).
# Using cDNA derived from both primary and secondary replated colonies, qPCR assay was used to determine whether colonies were positive for ber-abl transcripts. Primers and probes were designed based on the publication from Luthra, et.al. and are designed to anneal to ber-abl (target) and abl (endogenous control) cDNA. Each target was assayed in duplicated in a 20 μL reaction volume. Samples were denatured at 95° C. for 10 min and then amplified for 40 rounds of 95° C. for 15 s and 60° C. for 60 s.
# To determine whether a colony was normal (bcr-abl negative and abl positive) or diseased (bcr-abl and abl positive), a TaqMan®-based qPCR test was used. In order to score the colonies positive or negative, the following scoring strategy was performed. All colonies were assayed in duplicate for each target. If a singleton reaction yielded a Ct then the reaction scored a 1. If no Ct was recorded, a score of 0 was given. From here, we used a logic test to score the colonies into four different categories: bcr-abl and abl, abl only, bcr-abl only or both negative. In order to be placed in a category, a colony must score a 1 in both reactions. However, if a colony only scored a 1 for one out of the two reactions, this colony was removed from the analysis. If a colony scored a 1 for each reaction (both bcr-abl and abl) the colony was placed into the ber-abl and abl category, signifying it as a diseased colony. Alternatively, if a colony scored a 1 in only both of the bcr-abl reactions or a 1 in only both the abl reactions, the colony was placed in the bcr-abl only or abl only category, respectively. If the colony scored a 0 for both targets (bcr-abl and abl) then the colony was placed in the both negative category.
# calmodulin (CaM) = calmodulin (CaM) (Homo sapiens, UniProt P0DP23); settings: Ma 2013; cited from earlier work
# β-catenin = β-catenin level in K562 cell extracts by western blot; type: cell-based, human
# Experimental: Levels of β-catenin and β-actin proteins in untreated and tetrandrine-treated K562 cell lines by Western blot.
# Antibodies for Western Blot analysis against β-catenin and β-actin were purchased from Santa Cruz Biotechnology (Santa Cruz, CA) Protein lysates were prepared by lysing cells in RIPA buffer and immunoprecipitation.
# Briefly, the method to quantitate β-catenin protein by western blot was as follows: Extracts of K562 cells (untreated and treated with various concentrations of tetrandrine) were concentrated to 0.4 ml using Centricon-3 column to yield a protein concentration of approximately 2 mg/ml. Samples were mixed with 5X Laemmli buffer and loaded on 8-16% Tris-Glycine gradient gel, then polyacrylamide gel electrophoresis (PAGE) was run at 85 volts for 100 minutes at 6° C. and proteins were transferred on PVDF membrane at 70 Volts for 85 minutes at 8° C. Membrane was blocked with 5% milk in Tris-buffered Saline containing 0.1% TW-20 (TBST). Membrane was incubated with primary antibody for 18 hours at 4° C. followed by 3 washes, 5 minutes each, with TBST and incubated with secondary antibody in TBST for 2 hours at 25° C. […] Protein bands in WB images were quantitated using Molecular Imaging software pack MIS-4.0 software and tabulated in Excel spreadsheet.
# P-glycoprotein (P-gp) = P-glycoprotein (P-gp) (Homo sapiens, UniProt P08183); settings: cited from earlier work
# CAMKII gamma = biological target: T1, CAMKII gamma (Homo sapiens, UniProt Q13555); experiment: CAMKII gamma kinase activity (ADP Glo); type: biochemical
# T1 construct: purchased Promega V3531
# Experimental: An enzymatic study was conducted to evaluate the inhibition of CAMKII gamma by ES-3000 (Tetrandrine). CAMKII gamma kinase activity was measured using […] purchased from Promega following the Promega protocol. CAMKII enzyme system purchased from Promega (V3531). ADP Glo was used for detection. Assay optimized for linearity of protein and time. Conditions for inhibitor screening 25 ng CAMKII, 20 min. incubations, inhibitor or DMSO (5%) at RT in 20 uL total volume. Inhibitors, ATP (10 or 50 uM), substrates and buffer added to tubes and reactions started with enzyme. […] Reactions terminated at 20 min. by adding ADP Glo reaction following manufactures instructions. All reactions were done in duplicate. Calculations of percent (%) inhibition determined by dividing the mean activity at each condition by the mean of the DMSO control times 100.
# [3] = tested on: human CML bone marrow-derived cells; experiment: Colony forming cell (CFC) assay on CML patient bone marrow cells; settings: colony number, methylcellulose-based medium, 14-16 days
# Experimental: Clonogenic progenitors were set up using buman CML bone marrow-derived cells in the methylcellulose-based media formulation described above. Test articles were added to the medium to give final concentrations as described above. Standard cultures containing IMDM+10% FBS as well as solvent control cultures containing DMSO were also initiated. Following addition of the test compounds and cells, the tubes were vortexed to ensure equal distribution of compound and cells throughout the matrix. The cultures were set up in triplicate at 0.1×10^6 cells per culture (lot #BBM1000-E1110025705111110G4) for each control and each compound concentration. The cultures were placed in a humidified incubator (37° C., 5% CO2). Following 14-16 days in culture, the colonies were assessed and scored by trained personnel.
# Human bone marrow light-density cells derived from CML patient bone marrow (Conversant Bio, Alabama), were stored in the gaseous phase of liquid nitrogen until required. On the day of the experiment, the cells were thawed rapidly, the contents of the vial were diluted in 10 mL of Iscove's Modified Dulbecco's Medium containing 10% fetal bovine serum (IMDM+10% FBS) and washed by centrifugation (approximately 1200 r.p.m. for 10 minutes, room temperature). The supernatant was discarded, and the cell pellets were resuspended in a known volume of IMDM+10% FBS. A cell count (3% glacial acetic acid) and viability assessment (trypan blue exclusion test) […] Tetrandrine (10 μM) for 14 days. After treatment, primary and secondary colonies were grown and analyzed by qPCR to determine BCR-ABL or ABL only cells.
# Human erythroid (CFU-E and BFU-E) and myeloid (CFU-GM) colony enumeration were performed by trained personnel. In addition, the distribution of colony types as well as general colony and cellular morphology were analyzed. […] For statistical analysis, colony numbers in compound-treated cultures were compared to the solvent control cultures.
# hERG = hERG (Homo sapiens, UniProt Q12809); experiment: hERG inhibition, IonWorks HT electrophysiology in CHO cells stably transfected with hERG
# HCT116 cells = settings: cited from earlier work
# [4] = tested on: leukemic cells and leukemic stem cells; experiment: BCR-ABL induced CML mouse model (bone marrow transplantation); type: in vivo, C57BL/6 mice
# Description: The method is as follows: 20 C57BL/6 mice were used as donors for bone marrow transduction. They were primed by intravenous injection with 5-fluorouracil four days before collecting cells. Bone marrow cells were harvested from femurs and tibias. Bone marrow cells were infected with a retrovirus containing MSCV-BCR-ABL-IRES-GFP twice 60 recipient mice were lethally irradiated by two doses of 550cGy before bone marrow transplantation by intravenous injection with 500,000 cells/mouse.
# In an in vivo model, the effectiveness of Tetrandrine was tested on CML stem cells. The objective of the study was to determine the survival of leukemic cells and leukemic stem cells in response to the treatment with Tetrandrine. After priming donor C57BL/6 (B6) mice with intravenous injections of 5-fluorouracil for four days, bone marrow cells were harvested from femurs and tibia, then transfected twice with retrovirus containing MSCV-BCR-ABL-IRES-GFP. Recipient mice were lethally irradiated by two doses of 550 cGy before bone marrow transplantation by intravenous injection with 5×10^5 cells/mouse. Blood from recipient mice was tested for disease induction one week after transduction by FACS analysis for GFP (FIG. 7A). […] Treatments started on day 8 after bone marrow transplantation (FIG. 7B).
# [5] = Tetrandrine 150 mg/kg orally 1×/day versus Imatinib 100 mg/kg 2×/day, treatment from day 8 after bone marrow transplantation
# T1 sequence (Q13555 whole entry): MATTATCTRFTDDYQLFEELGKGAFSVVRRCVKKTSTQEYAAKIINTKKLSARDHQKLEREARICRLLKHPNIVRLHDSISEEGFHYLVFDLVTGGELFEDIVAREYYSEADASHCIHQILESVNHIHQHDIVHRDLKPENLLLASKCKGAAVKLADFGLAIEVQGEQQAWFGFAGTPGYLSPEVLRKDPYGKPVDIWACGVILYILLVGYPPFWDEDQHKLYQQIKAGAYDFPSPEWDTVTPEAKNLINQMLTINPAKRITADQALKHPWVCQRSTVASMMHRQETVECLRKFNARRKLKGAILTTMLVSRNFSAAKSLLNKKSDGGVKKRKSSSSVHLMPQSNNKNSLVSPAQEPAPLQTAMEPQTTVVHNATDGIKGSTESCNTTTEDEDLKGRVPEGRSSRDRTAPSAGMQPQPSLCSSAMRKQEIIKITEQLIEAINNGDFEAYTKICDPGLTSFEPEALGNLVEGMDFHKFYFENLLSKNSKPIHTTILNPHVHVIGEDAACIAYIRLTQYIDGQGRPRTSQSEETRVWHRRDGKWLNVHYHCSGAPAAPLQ
# hERG, sequence (Q12809 whole entry): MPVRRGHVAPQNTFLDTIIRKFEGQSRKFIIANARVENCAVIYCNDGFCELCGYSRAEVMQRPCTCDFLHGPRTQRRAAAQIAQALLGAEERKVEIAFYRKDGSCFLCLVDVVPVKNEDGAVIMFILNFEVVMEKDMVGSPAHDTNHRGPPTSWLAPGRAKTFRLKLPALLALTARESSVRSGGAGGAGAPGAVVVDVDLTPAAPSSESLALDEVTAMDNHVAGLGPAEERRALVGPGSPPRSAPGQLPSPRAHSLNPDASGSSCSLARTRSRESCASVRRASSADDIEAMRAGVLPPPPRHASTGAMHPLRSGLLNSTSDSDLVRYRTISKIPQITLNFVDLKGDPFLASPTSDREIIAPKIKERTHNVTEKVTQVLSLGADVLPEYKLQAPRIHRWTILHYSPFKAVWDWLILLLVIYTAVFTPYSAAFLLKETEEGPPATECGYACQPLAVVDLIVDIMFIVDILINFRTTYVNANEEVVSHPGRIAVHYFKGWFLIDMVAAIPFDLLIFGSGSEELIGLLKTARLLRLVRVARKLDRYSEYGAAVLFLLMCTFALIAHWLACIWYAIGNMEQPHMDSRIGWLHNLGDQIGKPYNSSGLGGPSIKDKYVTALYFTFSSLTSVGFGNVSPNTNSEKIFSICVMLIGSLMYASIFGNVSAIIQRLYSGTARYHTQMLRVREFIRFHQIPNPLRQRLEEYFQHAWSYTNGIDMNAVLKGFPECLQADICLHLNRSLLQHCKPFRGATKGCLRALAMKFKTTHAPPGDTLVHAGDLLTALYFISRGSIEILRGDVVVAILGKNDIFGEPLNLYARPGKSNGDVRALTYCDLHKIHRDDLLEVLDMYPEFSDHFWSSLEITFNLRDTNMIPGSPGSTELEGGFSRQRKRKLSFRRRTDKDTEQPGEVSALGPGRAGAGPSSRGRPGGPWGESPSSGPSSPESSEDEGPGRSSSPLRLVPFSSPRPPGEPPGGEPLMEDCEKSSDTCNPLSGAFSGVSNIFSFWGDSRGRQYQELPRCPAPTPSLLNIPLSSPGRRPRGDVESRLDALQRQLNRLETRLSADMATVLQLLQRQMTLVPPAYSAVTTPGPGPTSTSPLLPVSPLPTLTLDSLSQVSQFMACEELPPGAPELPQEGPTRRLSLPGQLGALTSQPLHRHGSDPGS
# P-glycoprotein (P-gp), sequence (P08183 whole entry): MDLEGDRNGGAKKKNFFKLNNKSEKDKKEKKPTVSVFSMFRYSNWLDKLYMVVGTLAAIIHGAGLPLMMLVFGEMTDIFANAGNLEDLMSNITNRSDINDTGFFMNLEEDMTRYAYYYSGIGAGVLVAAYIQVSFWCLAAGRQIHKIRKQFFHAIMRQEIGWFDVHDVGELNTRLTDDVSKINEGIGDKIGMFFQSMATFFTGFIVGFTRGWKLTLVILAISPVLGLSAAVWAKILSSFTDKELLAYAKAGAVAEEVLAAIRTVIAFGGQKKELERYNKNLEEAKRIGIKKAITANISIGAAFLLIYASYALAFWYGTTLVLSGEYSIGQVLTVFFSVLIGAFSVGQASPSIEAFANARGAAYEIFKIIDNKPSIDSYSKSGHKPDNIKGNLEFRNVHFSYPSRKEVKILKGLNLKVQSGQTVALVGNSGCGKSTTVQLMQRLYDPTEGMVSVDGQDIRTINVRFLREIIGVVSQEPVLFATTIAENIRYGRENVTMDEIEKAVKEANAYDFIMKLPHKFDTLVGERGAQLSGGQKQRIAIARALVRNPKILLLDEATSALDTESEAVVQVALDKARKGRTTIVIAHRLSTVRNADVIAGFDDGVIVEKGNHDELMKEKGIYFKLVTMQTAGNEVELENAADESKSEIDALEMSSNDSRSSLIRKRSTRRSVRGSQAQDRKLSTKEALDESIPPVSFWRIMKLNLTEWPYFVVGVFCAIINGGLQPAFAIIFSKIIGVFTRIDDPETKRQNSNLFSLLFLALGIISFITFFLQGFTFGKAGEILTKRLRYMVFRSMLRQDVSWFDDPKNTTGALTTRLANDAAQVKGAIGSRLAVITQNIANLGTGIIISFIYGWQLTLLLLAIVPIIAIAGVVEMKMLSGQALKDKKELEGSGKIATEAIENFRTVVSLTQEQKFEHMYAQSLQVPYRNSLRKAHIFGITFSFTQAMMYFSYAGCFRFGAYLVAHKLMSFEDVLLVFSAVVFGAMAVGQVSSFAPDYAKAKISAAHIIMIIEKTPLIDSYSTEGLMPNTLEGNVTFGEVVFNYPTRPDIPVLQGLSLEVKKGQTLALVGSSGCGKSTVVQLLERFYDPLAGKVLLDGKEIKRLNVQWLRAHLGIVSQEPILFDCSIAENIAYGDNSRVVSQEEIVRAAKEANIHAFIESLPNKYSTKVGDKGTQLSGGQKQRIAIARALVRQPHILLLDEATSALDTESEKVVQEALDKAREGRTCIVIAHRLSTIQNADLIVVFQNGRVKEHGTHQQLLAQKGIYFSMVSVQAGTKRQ
substance,measurement,setting,value
"6,6′,7,12-tetramethoxy-2,2′-dimethyl-berbaman [ES-3000]",pIC50,[1],4.98 to 5.82
same,Repeating Colony Count (secondary colonies per well),"[2]; colonies plucked from original cultures with ES-3000 @ 10 μM, 96 well plate, 14 days",1
same,average CFC per well,[2]; original cultures with ES-3000 @ 10 μM,three
same,abl only,bcr-abl transcripts; Primary colonies,1
same,bcr-abl only,bcr-abl transcripts; Primary colonies,1
same,both negative,bcr-abl transcripts; Primary colonies,4
same,abl only,bcr-abl transcripts; Secondary colonies,1
same,bcr-abl only,bcr-abl transcripts; Secondary colonies,0
same,both negative,bcr-abl transcripts; Secondary colonies,9
same,binding to calmodulin (CaM),calmodulin (CaM),bind competitively to calmodulin
same,β-catenin band,β-catenin; K562 cells treated with 20 and 40 uM,absent
same,β-catenin level,"β-catenin; K562 cells, 0 to 40 uM, 24 hours, western blot",lowers the β-catenin level in K562 cells in a dose dependent manner
same,P-gp substrate,P-glycoprotein (P-gp); Susa 2010,not a substrate of P-gp
same,reversal of P-glycoprotein-mediated drug resistance,P-glycoprotein (P-gp),potent and specific activity
same,mean (units),"CAMKII gamma; 30 uM inhibitor, 10 uM ATP",3.09 units
same,units (duplicate reactions),"CAMKII gamma; 30 uM inhibitor, 10 uM ATP",2.75 units and 3.43 units
same,mean (units),"CAMKII gamma; 30 uM inhibitor, 50 uM ATP",10.55 units
same,units (duplicate reactions),"CAMKII gamma; 30 uM inhibitor, 50 uM ATP",10.4 units and 10.7 units
same,mean (units),"CAMKII gamma; 100 uM inhibitor, 10 uM ATP",2.87 units
same,units (duplicate reactions),"CAMKII gamma; 100 uM inhibitor, 10 uM ATP",2.5 units and 3.24 units
same,mean (units),"CAMKII gamma; 100 uM inhibitor, 50 uM ATP",7.955 units
same,units (duplicate reactions),"CAMKII gamma; 100 uM inhibitor, 50 uM ATP",8.81 units and 7.1 units
same,mean (units),"CAMKII gamma; 250 uM inhibitor, 10 uM ATP",0.41 units
same,units (duplicate reactions),"CAMKII gamma; 250 uM inhibitor, 10 uM ATP",0.34 units and 0.48 units
same,BFU-E,[3]; 0.1 μM,22 ± 4
same,CFU-E,[3]; 0.1 μM,11 ± 1
same,CFU-GM,[3]; 0.1 μM,55 ± 5
same,Total Erythroid,[3]; 0.1 μM,33 ± 3
same,BFU-E,[3]; 1 μM,22 ± 4
same,CFU-E,[3]; 1 μM,10 ± 2
same,CFU-GM,[3]; 1 μM,54 ± 2
same,Total Erythroid,[3]; 1 μM,33 ± 3
same,BFU-E,[3]; 3 μM,14 ± 3
same,CFU-E,[3]; 3 μM,9 ± 2
same,CFU-GM,[3]; 3 μM,52 ± 5
same,Total Erythroid,[3]; 3 μM,23 ± 2
same,CFU-GM,[3]; 10 μM,26 ± 2
same,plasma levels at which QT prolongation might be expected,"hERG; subjects, interpretation of hERG IC50",above 249 ng/ml
same,safety for cardiac conduction-related toxicity (hERG IC50 versus Cmax),"hERG; utilizing Cmax from previous human clinical experience (Oldham 1998, Oldham 2000)",13 fold
same,anticancer activity in combination with 5-FU,HCT116 cells; HCT116 (He 2011),synergistic anticancer activity with 5-FU
same,migration and invasion capabilities,HCT116 cells; HCT116 cells (He 2011),reduced migration and invasion capabilities
same,spleen weight,"[4]; Tetrandrine 150 mg/kg in 0.1N HCl, 1 time per day",reduces spleen weight
same,development of circulating leukemic cells,[4]; [5],superior to Imatinib
same,development of leukemic stem cells,[4]; [5],superior to Imatinib
